Several values for one entry are separate records, joined by “and”; a condition that tells them apart may be missing. Equal values may be shown once. Blank lines part the entries; values can stand above or below the molecule they belong to.
Legend:
[1] = Total and unbound MPA and metabolite concentrations in plasma of kidney transplant recipients (HPLC-UV; ultrafiltration followed by LC-MS/MS); type: in vivo, human; conditions: 29 kidney transplant recipients
Description: (§1) Patients were receiving 1000-2000 mg/day mycophenolate mofetil (Cellcept® Roche Laboratories). Unstimulated saliva samples were collected by passive drool into a plastic cup within a 5-min period of blood collection and stored at −80° C. until analysis. The patients remained fasted for the first 2 hours of sampling but then were allowed standard hospital meals.
(§2) Given the fact that the possibility of blood leakage in saliva is high at morning trough (FIG. 3), have collected 144 additional saliva samples obtained during another pharmacokinetic study. Therefore the data represented in the next section were obtained from 29 kidney transplant recipients throughout a 12-hour dosing interval.

[2] = MPA concentration in saliva of kidney transplant recipients by LC-MS/MS; type: in vivo, human
Description: Indomethacin (INDO, Alfa Aesar) was used as the internal standard. All reagents and solvents were high performance liquid chromatography (HPLC) grade. […] Calibrators and Quality Control standards (QCs) were prepared using pooled unstimulated whole saliva collected from at least six healthy volunteers (IRB Approval#HU0203-120). […] All calibrators and QCs were aliquoted into 2 mL cryovials and maintained at −20° C. until use.
Extraction of MPA from saliva was carried out by protein precipitation. Calibrators, QC's or patient samples were thawed in a shaking water bath at 37° C. for 5 min. The samples were then sonicated for 10 seconds and 100 μL was pipetted into a microcentrifuge tube, followed by the subsequent additions 50 μL methanol containing INDO (500 μg/L) and […] acetonitrile. The tubes were vortex mixed for 90 seconds and centrifuged at 16,000 g for 5 min. The supernatants were carefully aspirated into glass culture tubes and dried at 50° C. in a centrifugal evaporator (Thermosavant Holbrook, N.Y.) after which they were reconstituted with 100 μL of 85:15% v/v of methanol and 0.05% formic acid in de-ionized water and a 20 μL aliquot was injected onto the column.
Analytical column was Zorbax Rx C8 (150 mm×4.6 mm, 5 μm) from Agilent Technologies (Palo Alto, Calif.) and mobile phase was a gradient mixture of methanol and deionized water containing 0.05% formic acid. […] For this, a combined mixture of the analytes (1 mg/L each) in mobile phase was infused continuously onto the mass spectrometer and the residues extracted from blank saliva were injected simultaneously via a three way T-valve. In accordance with further embodiments, the ionization technique may involve any of photoionization, electrospray ionization, atmospheric pressure chemical ionization, electron capture ionization or selective ion monitoring, and may be performed in positive mode or negative mode.
as §1, §2

[3] = Stock solution stability of methanolic stock solutions at room temperature; type: physicochemical; conditions: 8 hours, against freshly prepared samples
[4] = Stability of MPA in saliva based quality control standards (freeze-thaw, short term, autosampler); type: physicochemical; conditions: for Short term stability: bench top 5 hours at room temperature; for Short term stability / Freeze-thaw stability / Autosampler stability: n=3, mean ± SD, in % (unit assumed); for Freeze-thaw stability: three cycles of freezing at −20° C. and thawing at room temperature; for Autosampler stability: dried and reconstituted extracts 14-hours in autosampler
Description: The lower limit of quantification (LLOQ) and limit of detection (LOD) were defined at a signal to noise ratio of 5:1 and 3:1, respectively. The recovery of the extraction procedure was done by comparing the peak areas obtained from an extracted saliva based standard of MIPA or INDO with the peak areas of these analytes in methanol. To evaluate intraday coefficient of variation (CV %) of the assay, QCs were analyzed six times on the same day. Interday CV % and accuracy was evaluated by measuring the QC concentrations over 10 days using a separate calibration curve for each set. […] For short term stability studies, samples were kept on the bench top for 5 hours at room temperature and for freeze-thaw stability studies, samples were subjected to three cycles of freezing at −20° C. and thawing unassisted at room temperature. To evaluate autosampler stability, dried and reconstituted extracts were kept in the autosampler for 14-hours and then analyzed.

[5] = cited from earlier work
[6] = 29 kidney transplant recipients, N=243
[7] = 29 kidney transplant recipients, N=246

Compound: COc1c(C)c2c(c(O)c1C/C=C(\C)CCC(=O)O[C@@H]1O[C@H](C(=O)O)[C@@H](O)[C@H](O)[C@H]1O)C(=O)OC2 [AcMPAG, Acyl-MPAG]
AcMPAG conc, Mean ± SD ([1]; plasma, N=244): 1.8 ± 1.4 mg/L
AcMPAG conc, Median ([1]; plasma, N=244): 1.5 mg/L
AcMPAG conc, Min-Max ([1]; plasma, N=244): 0.4 to 8.5 mg/L
Presence of AcMPAG peak in patient saliva ([2]; saliva of kidney transplant recipients, LC-MS/MS chromatogram): no AcMPAG peak was observed

Loss of analyte at room temperature from methanolic stock solution [3]: 10%
Compound: COc1ccc2c(c1)c(CC(=O)O)c(C)n2C(=O)c1ccc(Cl)cc1 [INDO, Indomethacin]

Loss of analyte at room temperature from methanolic stock solution [3]: 0.6%
Short term stability ([4]; 10 μg/L MPA in saliva): 106.0 ± 3.6
Freeze-thaw stability ([4]; 10 μg/L MPA in saliva): 103.6 ± 7.1
Autosampler stability ([4]; 10 μg/L MPA): 95.0 ± 6.6
Short term stability ([4]; 600 μg/L MPA in saliva): 98.7 ± 2.7
Freeze-thaw stability ([4]; 600 μg/L MPA in saliva): 98.9 ± 1.1
Autosampler stability ([4]; 600 μg/L MPA): 98.2 ± 0.6
Stability in saliva based standards (in words) ([4]; under the experimental condition described): stable
Unbound MPA conc, Mean ± SD ([1]; plasma ultrafiltrate, N=243): 27.9 ± 36.6 µg/L
Unbound MPA conc, Median ([1]; plasma ultrafiltrate, N=243): 14.5 µg/L
Unbound MPA conc, Min-Max ([1]; plasma ultrafiltrate, N=243): 1.8 to 267.0 µg/L
Total MPA conc, Median ([1]; plasma, N=244): 2.3 mg/L
Total MPA conc, Min-Max ([1]; plasma, N=244): 0.3 to 38.5 mg/L
Total MPA conc, Mean ± SD ([1]; plasma, N=244, 12-hour dosing interval): 3.7 ± 4.7 mg/L
Salivary concentration of MPA before administration of Cellcept morning dose (morning trough) ([2]; 11 kidney transplant recipients, morning trough): 79.8 ± 63.7 µg/L
Saliva concentration of MPA, range ([2]; 11 kidney transplant recipients, n=100 samples, 12-hour dosing interval): 2.6 to 2204 µg/L and 2.6 to 220.4 µg/L
Saliva concentration of MPA, Mean±SD ([2]; 11 kidney transplant recipients, n=100 samples, 12-hour dosing interval, 1000-2000 mg/day mycophenolate mofetil): 31.4 ± 32.3 µg/L
Average deviation between saliva and unbound plasma concentrations ([2]; 29 kidney transplant recipients, 244 saliva samples): 0.49 ng/mL
Deviation between saliva and unbound conc, Mean ± SD (average deviation) [2, 6]: 0.49 µg/L and 0.49 ± 44.25 µg/L
Deviation between saliva and unbound conc, Median [2, 6]: 1.89 µg/L
Deviation between saliva and unbound conc, Min-Max [2, 6]: -208.10 to 264.54 µg/L
Saliva MPA conc, Mean ± SD [2, 7]: 28.3 ± 32.3 µg/L
Saliva MPA conc, Median [2, 7]: 18.1 µg/L
Saliva MPA conc, Min-Max [2, 7]: 1.4 to 283.9 µg/L
Saliva MPA compared with unbound plasma concentration ([2]; two hours post dose, absorption phase): considerably lower
Compound: COc1c(C)c2c(c(O)c1C/C=C(\C)CCC(=O)O)C(=O)OC2 [MPA, Mycophenolic acid]
pKa [5]: 4.5

MPAG conc, Mean ± SD ([1]; plasma, N=244): 51.8 ± 31.6 mg/L
MPAG conc, Median ([1]; plasma, N=244): 43.8 mg/L
MPAG conc, Min-Max ([1]; plasma, N=244): 10.6 to 180.5 mg/L
Compound: COc1c(C)c2c(c(O[C@@H]3O[C@H](C(=O)O)[C@@H](O)[C@H](O)[C@H]3O)c1C/C=C(\C)CCC(=O)O)C(=O)OC2 [MPAG, MPA-glucuronide]

From patent US20110281369A1 (Board of Governors for Higher Education, State of Rhode …, priority 2006, published 2011)
